Consider 64 compounds from patent US12226425B2, “Inhibitors of ARG1 and/or ARG2” (Arcus Biosciences, Inc., priority 2018, dated 2025).

The assay concerns the target T1, recombinant human ARG1 (Homo sapiens, UniProt P05089).
T1 sequence (P05089 1-322): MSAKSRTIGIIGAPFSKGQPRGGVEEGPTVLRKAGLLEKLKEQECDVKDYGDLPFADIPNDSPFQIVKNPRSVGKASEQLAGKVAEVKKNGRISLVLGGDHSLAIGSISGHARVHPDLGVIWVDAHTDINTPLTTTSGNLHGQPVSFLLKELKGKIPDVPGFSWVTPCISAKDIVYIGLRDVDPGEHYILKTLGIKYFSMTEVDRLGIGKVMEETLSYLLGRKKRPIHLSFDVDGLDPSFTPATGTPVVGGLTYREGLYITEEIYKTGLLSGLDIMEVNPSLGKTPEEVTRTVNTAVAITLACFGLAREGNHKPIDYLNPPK
Description: Arginase coupled enzymatic assay using recombinant human ARG1. It is filed as biochemical. The note with it: 2 nM ARG1, 0.8 mM L-Arginine, 10 mM sodium phosphate pH 7.4, 0.1 mM MnCl2, 37° C., absorption at 570 nm; read-out: hARG1 potency (IC50). On the procedure: Purified recombinant human ARG1 and ARG2 were prepared in 50 mM Bicine, pH 8.5, 100 μM MnCl2, 20% glycerol and 1mM DTT at a final stock concentration of 14.4 μM and 7.56 μM respectively. 2.5 nM of either ARG1 or ARG2 were incubated with varying concentrations of compounds in 10 mM sodium phosphate, pH 7.4, 0.1 mM MnCl2 and 2.5% DMSO in a total volume of 40 μl in a 384-well microplate (Corning™ #3640) at 37° C. for 1 h. The arginase enzymatic reaction was initiated by addition of 10 μl of 4 mM L-Arginine pre-incubated in 10 mM sodium phosphate, pH 7.4, and 0.1 mM MnCl2 at 37° C. into the enzyme and compound mixture, giving the final reaction conditions: 2 nM of ARG1 or ARG2 and 0.8 mM of L-Arginine in 10 mM sodium phosphate, pH 7.4, 0.1 mM MnCl2 and 2% DMSO with varying concentrations of compounds. Following 2 h incubation at 37° C., the arginase enzymatic reaction was stopped by transfer of 10 μl of reaction into 10 μl of detection mix (204 μM Amino-2-Borono-6-Hexanoic Acid, 0.25 μl Arginase Enzyme mix, 0.25 μl Arginase Developer, 0.25 μl Arginase Converter Enzyme in Arginase Assay Buffer from Arginase Activity Colorimetric Assay Kit, BioVision Inc. #K755-100) in a transparent 384-well microplate (Greiner #781801). The plate was immediately put into a plate reader (Synergy™ Neo2 Multi-Mode Microplate Reader) to monitor absorption at 570 nm at 37° C. Absorption values at 12˜20 min were used to calculate compound potency. The value of the DMSO blank (MIN inhibition=100% activity) was used as a negative control. The positive control was established by adding 8 μl of enzyme and DMSO mix into 10 μl of detection mix followed by addition of 2 μl of L-Arginine (MAX inhibition=0% activity). To calculate the percent activity, Equation 1 was used. Abs570nm is the value at a given compound concentration:
A counter-screen was performed to identify any inhibition of the coupling enzymes by the test compounds. 10 μl of 0.26 mM of urea with varying concentrations of compounds in 10 mM sodium phosphate, pH 7.4, 0.1 mM MnCl2 and 2% DMSO were added into 10 μl of detection mix in place of the arginase enzymatic reaction mix. Absorption was monitored at 570 nm as described above. The values of a no substrate blank (without urea; MAX inhibition=0% activity) and a DMSO blank (MIN inhibition=100% activity) were used as positive and negative controls respectively. […] Inactivity in the counter-screen was used to confirm that results accurately reflected IC50 values for ARG1 and ARG2.
In the case of `NCc1cccc2c1C[C@H](CCCB(O)O)[C@]2(N)C(=O)O`, the IC50 is 100 to 1000 nM.

Turning to `N[C@@]1(C(=O)O)c2cccc(CO)c2C[C@@H]1CCCB(O)O`, the IC50 is greater than 1000 nM. The result for `N[C@@]1(C(=O)O)c2cccc(-c3cn[nH]c3)c2C[C@@H]1CCCB(O)O` reads greater than 1000 nM; that for `Cc1ccc2c(c1)[C@@](N)(C(=O)O)[C@@H](CCCB(O)O)C2`, greater than 1000 nM; that for `C[C@]1(CCCB(O)O)Cc2ccccc2[C@@]1(N)C(=O)O`, greater than 1000 nM.

With `CN[C@@]1(C(=O)O)c2cc(CN3CC(F)(F)C3)c(Cl)cc2C[C@@H]1CCCB(O)O`, the IC50 is 100 to 1000 nM. In the case of `CN[C@@]1(C(=O)O)c2cc(-c3ncccc3C)c(F)cc2C[C@@H]1CCCB(O)O`, the IC50 was 100 to 1000 nM. The result for `CN[C@@]1(C(=O)O)c2cc(N3CC[C@H](O)C3)c(F)cc2C[C@@H]1CCCB(O)O` reads 100 to 1000 nM. The result for `CNCc1cc2c(cc1F)C[C@H](CCCB(O)O)[C@]2(NC)C(=O)O` reads less than 100 nM; that for `CN[C@@]1(C(=O)O)c2cc(CN3CCCC3)c(F)cc2C[C@@H]1CCCB(O)O`, less than 100 nM.

Regarding `CN[C@@]1(C(=O)O)c2cc(CN(C)C)c(Cl)cc2C[C@@H]1CCCB(O)O`, the concentration for half-maximal inhibition (IC50) is less than 100 nM. For `CN[C@@]1(C(=O)O)c2cc(-c3cccnc3)c(F)cc2C[C@@H]1CCCB(O)O`, the IC50 lay within 100 to 1000 nM. `CN[C@@]1(C(=O)O)c2cc(-c3ccc(CN)cc3)c(Cl)cc2C[C@@H]1CCCB(O)O`: the IC50 was less than 100 nM. For `CN[C@@]1(C(=O)O)c2cc(Nc3ccccn3)c(F)cc2C[C@@H]1CCCB(O)O`, the IC50 was in the range of 100 to 1000 nM. The same measure for `CN[C@@]1(C(=O)O)c2cc([C@H](N)C(F)(F)F)ccc2C[C@@H]1CCCB(O)O`: 100 to 1000 nM; for `CN[C@@]1(C(=O)O)c2cc(Cn3ccnc3N)c(Cl)cc2C[C@@H]1CCCB(O)O`: less than 100 nM. The same measure for `CN[C@@]1(C(=O)O)c2cc(CN)ccc2C[C@@H]1CCCB(O)O`: less than 100 nM; for `CN[C@@]1(C(=O)O)c2cc(CNC(C)=O)ccc2C[C@@H]1CCCB(O)O`: 100 to 1000 nM. The result for `CN[C@@]1(C(=O)O)c2cc(-c3ccccc3CN)c(F)cc2C[C@@H]1CCCB(O)O` reads less than 100 nM. `CN[C@@]1(C(=O)O)c2cc(CNC(=O)[C@H](C)N)ccc2C[C@@H]1CCCB(O)O`: the IC50 was less than 100 nM. The result for `CN[C@@]1(C(=O)O)c2cc(-c3ccc(CN)cc3)ccc2C[C@@H]1CCCB(O)O` reads less than 100 nM; that for `CN[C@@]1(C(=O)O)c2cc(CNCC(F)(F)F)c(F)cc2C[C@@H]1CCCB(O)O`, 100 to 1000 nM; that for `CN[C@@]1(C(=O)O)c2cc(CN3CCCC3(C)C)c(F)cc2C[C@@H]1CCCB(O)O`, less than 100 nM. The result for `CN[C@@]1(C(=O)O)c2cc(CN3CC[C@@H](F)C3)c(F)cc2C[C@@H]1CCCB(O)O` reads less than 100 nM; that for `CN[C@@]1(C(=O)O)c2cc(CN3CCC(F)(F)CC3)c(F)cc2C[C@@H]1CCCB(O)O`, 100 to 1000 nM.

In the case of `CC[C@@H](N)c1cc2c(cc1Cl)C[C@H](CCCB(O)O)[C@]2(NC)C(=O)O`, the IC50 was less than 100 nM. The result for `CC[C@H](N)c1cc2c(cc1Cl)C[C@H](CCCB(O)O)[C@]2(NC)C(=O)O` reads less than 100 nM. The result for `CN[C@@]1(C(=O)O)c2cc(-c3cccc(CN)c3)c(Cl)cc2C[C@@H]1CCCB(O)O` reads less than 100 nM. The result for `CN[C@@]1(C(=O)O)c2cc(CN3CCCCC3)c(F)cc2C[C@@H]1CCCB(O)O` reads less than 100 nM. As to `CN[C@@]1(C(=O)O)c2cc(-c3ncccc3N)c(F)cc2C[C@@H]1CCCB(O)O`, the half-inhibitory concentration (IC50) lay in the range of 100 to 1000 nM. The same measure for `CN[C@@]1(C(=O)O)c2cc(Cc3ccccn3)c(Cl)cc2C[C@@H]1CCCB(O)O`: 100 to 1000 nM. The result for `CN[C@@]1(C(=O)O)c2cc(-c3cc(F)ccc3CN)c(F)cc2C[C@@H]1CCCB(O)O` reads less than 100 nM; that for `CN[C@@]1(C(=O)O)c2cc([C@H](N)C3CC3)c(F)cc2C[C@@H]1CCCB(O)O`, less than 100 nM; that for `CC[C@@H](N)c1cc2c(cc1F)C[C@H](CCCB(O)O)[C@]2(NC)C(=O)O`, less than 100 nM. The result for `CC[C@H](N)c1cc2c(cc1F)C[C@H](CCCB(O)O)[C@]2(NC)C(=O)O` reads less than 100 nM. For the compound `CN[C@@]1(C(=O)O)c2cc(CN3CCC(c4ccccc4)CC3)c(F)cc2C[C@@H]1CCCB(O)O`, the half-maximal inhibitory concentration (IC50) is less than 100 nM. For `CN[C@@]1(C(=O)O)c2cc([C@@H](N)C3CC3)c(Cl)cc2C[C@@H]1CCCB(O)O`, the concentration for half-maximal inhibition (IC50) is less than 100 nM. The result for `CN[C@@]1(C(=O)O)c2cc(-c3ccccc3CCN)c(F)cc2C[C@@H]1CCCB(O)O` reads less than 100 nM. The same measure for `CN[C@@]1(C(=O)O)c2cc(-c3ccc(F)cc3CN)c(F)cc2C[C@@H]1CCCB(O)O`: less than 100 nM. The result for `CN[C@@]1(C(=O)O)c2cc(CNC3CC3)c(F)cc2C[C@@H]1CCCB(O)O` reads less than 100 nM; that for `CN[C@@]1(C(=O)O)c2cc([C@H](N)C3CC3)c(Cl)cc2C[C@@H]1CCCB(O)O`, less than 100 nM; that for `CN[C@@]1(C(=O)O)c2cc([C@@H](N)C3CC3)c(F)cc2C[C@@H]1CCCB(O)O`, less than 100 nM. For `CN[C@@]1(C(=O)O)c2cc(CNC3CCCC3)c(F)cc2C[C@@H]1CCCB(O)O`, the IC50 was less than 100 nM. `CN[C@@]1(C(=O)O)c2cc(CNC(C)C)c(F)cc2C[C@@H]1CCCB(O)O`: the IC50 was less than 100 nM. `CN[C@@]1(C(=O)O)c2cc([C@H](N)C(C)C)c(F)cc2C[C@@H]1CCCB(O)O`: the IC50 was less than 100 nM. The result for `CN[C@@]1(C(=O)O)c2cc([C@@H](N)C(C)C)c(F)cc2C[C@@H]1CCCB(O)O` reads less than 100 nM; that for `CN[C@@]1(C(=O)O)c2cc([C@H](N)C(C)C)c(Cl)cc2C[C@@H]1CCCB(O)O`, less than 100 nM. The same measure for `CN[C@@]1(C(=O)O)c2cc([C@@H](N)C(C)C)c(Cl)cc2C[C@@H]1CCCB(O)O`: less than 100 nM; for `CN[C@@]1(C(=O)O)c2cc(C3(N)CCC3)c(F)cc2C[C@@H]1CCCB(O)O`: less than 100 nM. Regarding `CN[C@@]1(C(=O)O)c2cc(C3(N)CCC3)c(Cl)cc2C[C@@H]1CCCB(O)O`, the IC50 was less than 100 nM. The same measure for `CN[C@@]1(C(=O)O)c2cc(C3(N)CCC3)ccc2C[C@@H]1CCCB(O)O`: less than 100 nM; for `CN[C@@]1(C(=O)O)c2cc(C3(N)CCCCC3)c(F)cc2C[C@@H]1CCCB(O)O`: less than 100 nM. With `CN[C@@]1(C(=O)O)c2cc([C@H](C)N)ccc2C[C@@H]1CCCB(O)O`, the IC50 was less than 100 nM. The same measure for `CN[C@@]1(C(=O)O)c2cc(-c3cccc(F)c3C(C)(C)N)c(F)cc2C[C@@H]1CCCB(O)O`: less than 100 nM; for `CN[C@@]1(C(=O)O)c2cc(C(C)(C)CN)c(F)cc2C[C@@H]1CCCB(O)O`: less than 100 nM. The same measure for `CN[C@@]1(C(=O)O)c2cc(C(C)(C)C(C)(C)N)c(F)cc2C[C@@H]1CCCB(O)O`: less than 100 nM; for `CN[C@@]1(C(=O)O)c2cc(O[C@@H]3CCC[C@H]3N)c(F)cc2C[C@@H]1CCCB(O)O`: less than 100 nM. The result for `CN[C@@]1(C(=O)O)c2cc(OCCN)ccc2C[C@@H]1CCCB(O)O` reads less than 100 nM; that for `CN[C@@]1(C(=O)O)c2cc(C3(C(C)(C)N)CCC3)c(F)cc2C[C@@H]1CCCB(O)O`, less than 100 nM. Turning to `CN[C@@]1(C(=O)O)c2cc(CCCN)c(F)cc2C[C@@H]1CCCB(O)O`, the IC50 was less than 100 nM.

Turning to `CN[C@@]1(C(=O)O)c2cc(C3(CNC(=O)[C@H](C)N)CCC3)c(F)cc2C[C@@H]1CCCB(O)O`, the half-inhibitory concentration (IC50) was less than 100 nM. The same measure for `CN[C@@]1(C(=O)O)c2cc([C@H]3CCCN3)c(F)cc2C[C@@H]1CCCB(O)O`: less than 100 nM; for `CN[C@@]1(C(=O)O)c2cc([C@@H]3CCCN3)c(F)cc2C[C@@H]1CCCB(O)O`: less than 100 nM; for `CN[C@@]1(C(=O)O)c2cc(C3(C(N)=O)CCC3)c(F)cc2C[C@@H]1CCCB(O)O`: 100 to 1000 nM.
